test system: female Balb/c mice; assay: In vivo efficacy of SARS-CoV-2 Spike mRNA in lipid nanoparticle formulation: serum anti-Spike IgG by ELISA; settings: FIGS. 1C-D, intramuscular, 28 days following injection

SMILES	amount of anti-Spike antibody (of SARS-CoV-2) produced in mice
CCCCCCCCCC1(CCCCCC)OCC(CCCCN(CCCCO)CCCCC2COC(CCCCCC)(CCCCCCCCC)O2)O1 (stereo not shown) [KT-001]	largest amounts

test system: not listed separately; assay: Lipid nanoparticle characterization (size, PDI, zeta potential, encapsulation efficiency); format: physicochemical; settings: Fresh samples; LNP of named lipid:DSPC:Cholesterol:GM020=50:10:38.5:1.5 (DS-001 25:10:38.5:1.5); 250 μg mRNA
Description: Lipid nanoparticles were prepared with the following compositions: • ALC-0315:DSPC:Cholesterol:GM020=50:10:38.5:1.5 (and buffer) (positive control) • TU-001:DSPC:Cholesterol:GM020=50:10:38.5:1.5 (and buffer) • TU-002:DSPC:Cholesterol:GM020=50:10:38.5:1.5 (and buffer) • TU-003:DSPC:Cholesterol:GM020=50:10:38.5:1.5 (and buffer) • TU-004:DSPC:Cholesterol:GM020=50:10:38.5:1.5 (and buffer) • TU-005:DSPC:Cholesterol:GM020=50:10:38.5:1.5 (and buffer) • TU-006:DSPC:Cholesterol:GM020=50:10:38.5:1.5 (and buffer) • TU-007:DSPC:Cholesterol:GM020=50:10:38.5:1.5 (and buffer) • TU-008:DSPC:Cholesterol:GM020=50:10:38.5:1.5 (and buffer) • TU-009:DSPC:Cholesterol:GM020=50:10:38.5:1.5 (and buffer) • BAE-001:DSPC:Cholesterol:GM020=50:10:38.5:1.5 (and buffer) • BAA-001:DSPC:Cholesterol:GM020=50:10:38.5:1.5 (and buffer) • DS-001:DSPC:Cholesterol:GM020=25:10:38.5:1.5 (and buffer) • KT-001:DSPC:Cholesterol:GM020=50:10:38.5:1.5 (and buffer) • Where buffer is water, Trehalose, Tris Base, sodium chloride. DSPC is 1,2-distearoyl-sn-glycero-3-phosphocholine. GM020 is DMG-PEG (1,2-Dimyristoyl-rac-glycero-3-methylpolyoxyethylene).
Table 1 summarizes the lipid nanoparticle characterization with respect to various parameters including nanoparticle size (Z avg), polydispersity index (PDI), charge (Zeta potential), encapsulation efficiency and yield.

SMILES	Encapsulation Efficiency	PDI	Z Avg.	Zeta Potential
CCCCCCCCC(CCCCCC)C(=O)OCCCN(CCCOC(=O)C(CCCCCC)CCCCCCCC)C(=S)NCCCN(CC)CC (stereo not shown) [TU-006]	81.48%	0.278	68.84 nm	−0.642 mV
CCCCCCCCC(CCCCCC)C(=O)OCCCCCCN(CCCCCCOC(=O)C(CCCCCC)CCCCCCCC)CCCCNC(=O)OCCSSCCOC(=O)NCCCCN(CCCCCCOC(=O)C(CCCCCC)CCCCCCCC)CCCCCCOC(=O)C(CCCCCC)CCCCCCCC (stereo not shown) [DS-001]	84.50%	0.12	63.0 nm	−3.74 mV
CCCCCCCCC(CCCCCC)C(=O)OCCCN(CCCOC(=O)C(CCCCCC)CCCCCCCC)C(=S)NCCCN1CCCCC1C (stereo not shown) [TU-003]	90.47%	0.23	73.29 nm	−0.56 mV
CCCCCCCCCC1(CCCCCC)OCC(CCCCN(CCCCO)CCCCC2COC(CCCCCC)(CCCCCCCCC)O2)O1 (stereo not shown) [KT-001]	80.60%	0.08	84.7 nm	−3.30 mV
CCCCCCCCC(CCCCCC)C(=O)OCCCCCCN(CCCCO)CCCCCCOC(=O)C(CCCCCC)CCCCCCCC (stereo not shown) [ALC-0315, reference compound]	83.16%	0.223	78.67 nm	−4.74 mV
CCCCCCCCC(CCCCCC)C(=O)OCCCCCCN(CCCCO)CCC(=O)OCCCCOC(=O)CCN(CCCCO)CCCCCCOC(=O)C(CCCCCC)CCCCCCCC (stereo not shown) [BAE-001]	83.32%	0.141	111.7 nm	−0.28 mV
CCCCCCCCC(CCCCCC)C(=O)OCCCN(CCCOC(=O)C(CCCCCC)CCCCCCCC)C(=S)NCCCN1CCN(C)CC1 (stereo not shown) [TU-004]	72.53%	0.24	79.77 nm	−1.27 mV
CCCCCCCCC(CCCCCC)C(=O)OCCCN(CCCOC(=O)C(CCCCCC)CCCCCCCC)C(=S)NCCCN(CCCC)CCCC (stereo not shown) [TU-009]	80.76%	0.188	64.82 nm	−4.40 mV
CCCCCCCCC(CCCCCC)C(=O)OCCCN(CCCOC(=O)C(CCCCCC)CCCCCCCC)C(=S)NCCCN1CCOCC1 (stereo not shown) [TU-002]	80.64%	0.133	76.99 nm	−2.55 mV
CCCCCCCCC(CCCCCC)C(=O)OCCCN(CCCOC(=O)C(CCCCCC)CCCCCCCC)C(=S)NCCCN(CCC)CCC (stereo not shown) [TU-007]	78.96%	0.156	63.30 nm	−2.68 mV
CCCCCCCCC(CCCCCC)C(=O)OCCCN(CCCOC(=O)C(CCCCCC)CCCCCCCC)C(=S)NCCCN (stereo not shown) [TU-005]	97.66%	0.282	176.9 nm	−0.842 mV
CCCCCCCCC(CCCCCC)C(=O)OCCCN(CCCOC(=O)C(CCCCCC)CCCCCCCC)C(=S)NCCCNC(C)C (stereo not shown) [TU-008]	97.75%	0.253	64.64 nm	−1.07 mV
